Source: patent US20210221848A1, “POLYMYXIN DERIVATIVES AND THEIR USE IN COMBINATION THERAPY TOGETHER WITH DIFFERENT ANTIBIOTICS” (priority 2014, published 2021)
Where two headings read alike, the source gives them in different places.

Columns and labels:
[1] = tested on: E. coli strains with elevated MICs to Polymyxin B; test: MIC against strains with elevated MICs to Polymyxin B; type: cell-based, Escherichia coli; conditions: Table 6D; for MIC E. coli 058: strain 058, elevated MIC to Polymyxin B; for MIC E. coli 059: strain 059, elevated MIC to Polymyxin B; for MIC E. coli 060: strain 060, elevated MIC to Polymyxin B; for MIC E. coli 061: strain 061, elevated MIC to Polymyxin B
Summary of the method: (§1)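 Reported MIC is the lower of duplicates agreeing within 2-fold, or the mode where compounds were tested repeatedly. Assays with greater than 2-fold duplicate variation were rejected. Colonies grown 18-24 hours on Mueller-Hinton agar were suspended to 0.5 McFarland as inoculum.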

[2] = tested on: A. baumanii strains with elevated MICs to Polymyxin B; test: MIC against strains with elevated MICs to Polymyxin B; type: cell-based, Acinetobacter baumannii; conditions: Table 6D; for MIC A. baumannii 053: strain 053, elevated MIC to Polymyxin B; for MIC A. baumannii 056: strain 056, elevated MIC to Polymyxin B; for MIC A. baumannii 068: strain 068, elevated MIC to Polymyxin B; for MIC A. baumannii 070: strain 070, elevated MIC to Polymyxin B
Summary of the method: as §1

[3] = tested on: P. aeruginosa strains with elevated MICs to Polymyxin B; test: MIC against strains with elevated MICs to Polymyxin B; type: cell-based, Pseudomonas aeruginosa; conditions: Table 6D; for MIC P. aeruginosa 065: strain 065, elevated MIC to Polymyxin B; for MIC P. aeruginosa 066: strain 066, elevated MIC to Polymyxin B; for MIC P. aeruginosa 067: strain 067, elevated MIC to Polymyxin B
Summary of the method: as §1

[4] = tested on: K. pneumoniae strains with elevated MICs to Polymyxin B; test: as above; type: cell-based, Klebsiella pneumoniae; conditions: Table 6D; for MIC K. pneumoniae 062: strain 062, elevated MIC to Polymyxin B; for MIC K. pneumoniae 063: strain 063, elevated MIC to Polymyxin B; for MIC K. pneumoniae 064: strain 064, elevated MIC to Polymyxin B
Summary of the method: as §1

[5] = absence of a second agent, Table 6B

“5-(3- methylbutanamido) piperidine-3- carbonyl Polymyxin B nonapeptide [Example D64]” was tested. Which “MIC E. coli 058” value [1] did it give?
Its value is 64 micrograms/mL.

And the “MIC E. coli 059” value [1]?
Its value is 128 micrograms/mL.

What about the “MIC E. coli 060” value [1] of the same substance?
The value was 64 micrograms/mL.

And the “MIC E. coli 061” value [1]?
The value was 64 micrograms/mL.

And the “MIC, P. aeruginosa ATCC 27853” value (P. aeruginosa; sole activity, Table 6C)?
Its value is 1 micrograms/mL.

What about the “MIC, P. aeruginosa CCUG 59347” value (P. aeruginosa; sole activity, Table 6C) of the same substance?
The value was 1 micrograms/mL.

What about the “MIC, K. pneumoniae ATCC 4352” value (K. pneumoniae; sole activity, Table 6C) of the same substance?
Its value is 0.25 micrograms/mL.

And the “MIC, K. pneumoniae ATCC BAA-2146” value (K. pneumoniae; sole activity, Table 6C)?
The value was 0.25 micrograms/mL.

What about the “MIC, E. coli ATCC 25922” value (E. coli; sole activity, Table 6C) of the same substance?
Its value is 0.25 micrograms/mL.

And the “MIC, E. coli NCTC 13441” value (E. coli; sole activity, Table 6C)?
Its value is 0.25 micrograms/mL.

And the “MIC A. baumannii 053” value [2]?
The value was over 256 micrograms/mL.

And the “MIC A. baumannii 056” value [2]?
The value was 256 micrograms/mL.

And the “MIC A. baumannii 068” value [2]?
Its value is 128 micrograms/mL.

And the “MIC A. baumannii 070” value [2]?
The value was over 256 micrograms/mL.

What about the “MIC, A. baumannii ATCC BAA-747” value (A. baumannii; sole activity, Table 6C) of the same substance?
The value was 2 micrograms/mL.

And the “MIC, A. baumannii NCTC 13424” value (A. baumannii; sole activity, Table 6C)?
Its value is 2 micrograms/mL.

And the “MIC P. aeruginosa 065” value [3]?
Its value is 64 micrograms/mL.

What about the “MIC P. aeruginosa 066” value [3] of the same substance?
The value was 64 micrograms/mL.

And the “MIC P. aeruginosa 067” value [3]?
The value was over 256 micrograms/mL.

What about the “MIC K. pneumoniae 062” value [4] of the same substance?
Its value is over 256 micrograms/mL.

And the “MIC K. pneumoniae 063” value [4]?
Its value is over 256 micrograms/mL.

And the “MIC K. pneumoniae 064” value [4]?
The value was 128 micrograms/mL.

Which “MIC E. coli 058” value [1] does the source give for “trans-4- octylpyrrolidine-3- carbonyl polymyxin B nonapeptide [Example D31]” here?
The value was 2 micrograms/mL.

And the “MIC E. coli 059” value [1]?
The value was 8 micrograms/mL.

What about the “MIC E. coli 060” value [1] of the same substance?
The value was 4 micrograms/mL.

What about the “MIC E. coli 061” value [1] of the same substance?
The value was 16 micrograms/mL.

What about the “MIC, P. aeruginosa ATCC 27853” value (P. aeruginosa; [5]) of the same substance?
The value was 0.5 micrograms/mL.

What about the “MIC, P. aeruginosa CCUG 59347” value (P. aeruginosa; [5]) of the same substance?
The value was 1 micrograms/mL.

What about the “MIC, K. pneumoniae ATCC 4352” value (K. pneumoniae; [5]) of the same substance?
The value was 0.5 micrograms/mL.

What about the “MIC, E. coli ATCC 25922” value (E. coli; [5]) of the same substance?
The value was 2 micrograms/mL.

And the “MIC, E. coli NCTC 13441” value (E. coli; [5])?
The value was 1 micrograms/mL.

And the “MIC A. baumannii 053” value [2]?
The value was over 128 micrograms/mL.

What about the “MIC A. baumannii 056” value [2] of the same substance?
Its value is 64 micrograms/mL.

And the “MIC A. baumannii 068” value [2]?
The value was 4 micrograms/mL.

And the “MIC A. baumannii 070” value [2]?
Its value is 4 micrograms/mL.

What about the “MIC, A. baumannii ATCC BAA-747” value (A. baumannii; [5]) of the same substance?
The value was 1 micrograms/mL.

And the “MIC, A. baumannii NCTC 13424” value (A. baumannii; [5])?
Its value is 2 micrograms/mL.

What about the “MIC P. aeruginosa 065” value [3] of the same substance?
Its value is 16 micrograms/mL.

And the “MIC P. aeruginosa 066” value [3]?
The value was 32 micrograms/mL.

What about the “MIC P. aeruginosa 067” value [3] of the same substance?
Its value is over 64 micrograms/mL.

And the “MIC K. pneumoniae 062” value [4]?
The value was 64 micrograms/mL.

And the “MIC K. pneumoniae 063” value [4]?
The value was over 128 micrograms/mL.

And the “MIC K. pneumoniae 064” value [4]?
Its value is 64 micrograms/mL.

What about the “MIC K. pneumoniae 655” value ([4]; strain 655, elevated MIC to Polymyxin B) of the same substance?
The value was over 256 micrograms/mL.

Which results are given for “5- (isobutoxy)piperi- dine-3-carbonyl Polymyxin B nonapeptide [Example D63]”?
MIC E. coli 058 [1]: 16 micrograms/mL; MIC E. coli 061 [1]: 32 micrograms/mL; MIC, P. aeruginosa ATCC 27853 (P. aeruginosa; sole activity, Table 6C): 0.5 micrograms/mL; MIC, P. aeruginosa CCUG 59347 (P. aeruginosa; sole activity, Table 6C): 0.5 micrograms/mL; MIC, K. pneumoniae ATCC 4352 (K. pneumoniae; sole activity, Table 6C): 0.125 micrograms/mL; MIC, K. pneumoniae ATCC BAA-2146 (K. pneumoniae; sole activity, Table 6C): 0.125 micrograms/mL; MIC, E. coli ATCC 25922 (E. coli; sole activity, Table 6C): 0.06 micrograms/mL; MIC, E. coli NCTC 13441 (E. coli; sole activity, Table 6C): 0.125 micrograms/mL; MIC A. baumannii 056 [2]: 128 micrograms/mL; MIC, A. baumannii ATCC BAA-747 (A. baumannii; sole activity, Table 6C): 0.25 micrograms/mL; MIC, A. baumannii NCTC 13424 (A. baumannii; sole activity, Table 6C): 0.25 micrograms/mL; MIC P. aeruginosa 065 [3]: 4 micrograms/mL; MIC P. aeruginosa 066 [3]: 32 micrograms/mL; MIC P. aeruginosa 067 [3]: >256 micrograms/mL; MIC K. pneumoniae 062 [4]: 128 micrograms/mL; MIC K. pneumoniae 064 [4]: 4 micrograms/mL
